{"source": "patent US20220160779A1", "about": "“COMPOSITION FOR PROMOTING CARTILAGE TISSUE REGENERATION” (National University Corporation Tokyo Medical and Dental …, priority 2019, published 2022)", "key": {"p44/42 MAPK (Erk1/2)": {"tested_on": "p44/42 MAPK (Erk1/2)", "test": "Western blotting, phosphorylation of p44/42 MAPK (Erk1/2) in synovial MSCs", "type": "cell-based, human", "details": "FIG. 5F", "protocol": "(§1) Synovial MSCs were seeded in 6 cm dishes to reach a cell count of 2×10^5, and cultured in normal growth medium for 1 day. The medium was replaced with fresh medium with reduced amount of FBS (MEM-alpha, 0.5% FBS and antibiotics) and cultured for one more day. The cells were treated with rh Activin A and/or PDGF-AA (amount 3 times the ED50) for up to 30 minutes. Then, those cells were lysed with cell lysis buffer (#9803S; Cell Signaling Technology, MA) to prepare total cell lysate.\n(§2) Western blotting was performed as described in Uomizu, M. et al, J Med Dent Sci. vol. 65, pp. 73 to 82. The antibodies used were purchased from Cell Signaling Technology (phospho-p44/42 (#4370), p44/42 (#9102), phospho-Akt (#9271), and Akt (#9272))."}, "proteoglycans": {"tested_on": "proteoglycans", "details": "cited from earlier work"}, "Wistar rats": {"tested_on": "Wistar rats", "test": "MIA-induced arthritis rat model, incapacitance test", "type": "in vivo", "details": "intra-articular at day 14 after MIA (400 ng/30 uL in PBS), vs control group; FIG. 9B", "protocol": "Wistar rats (Charles River, Japan) aged 10 weeks and weighing 330 to 345 g were used for this study. The rats were divided into two groups (those to be injected with Activin A after injection of mono-iodoacetic acid (MIA), and those to be injected with vehicle after injection of MIA (control)), and subjected to the following experiments.\nFirst, the rats were anesthetized by isoflurane inhalation, and 30 μL of physiological saline containing 1.0 mg MIA was injected into the left knee joint as described in Hoshino T. et al, BMC Musculoskelet Disord., 2018, 19(1): 291. Then, at day 14 after MIA injection, 30 μL of recombinant human Activin A (400 ng/30 μL in PBS) or PBS only as a vehicle was injected. Then, pain avoidance behavior (load asymmetry) between the left limb (MIA-injected side) and the right limb (MIA-uninjected side) was evaluated at day 0 (before injection) and days 1, 3, 7, 14, 17, 19, 21, 24, and 28 after injection.\nLoad asymmetry was detected by using an incapacitance tester (Linton Instrumentation, Norfolk, UK) with rats in its prismatic Plexiglas case, and the left and right hindlimbs placed on independent force plates. […]\nThen, the change from the difference in the percentage of load before administration was then evaluated over time. […]"}, "Akt": {"tested_on": "Akt", "test": "Western blotting, phosphorylation of Akt in synovial MSCs", "type": "cell-based, human", "details": "FIG. 5F", "protocol": "as §1, §2"}, "[1]": {"details": "Activin A alone, MSCs serum-starved 24 hours, within 30 minutes"}, "[2]": {"details": "Activin A together with PDGF-AA"}}}
{"substance": "Activin A: homodimer of two inhibin βA chains; recombinant human protein purchased from R&D Systems", "values": [{"measurement": "phosphorylation of Erk1/2", "setting": "p44/42 MAPK (Erk1/2); [1]", "value": "not detected"}, {"measurement": "intracellular Erk phosphorylation", "setting": "p44/42 MAPK (Erk1/2); [2]", "value": "no enhancement"}, {"measurement": "expression of proteoglycans", "setting": "proteoglycans", "value": "promotes the expression of proteoglycans"}, {"measurement": "load on MIA-injected hindlimb (pain avoidance behavior)", "setting": "Wistar rats", "value": "significant improvement"}, {"measurement": "phosphorylation of Akt", "setting": "Akt; [1]", "value": "not detected"}, {"measurement": "phosphorylation of Akt by PDGF", "setting": "Akt; [2]", "value": "enhanced"}]}
